Measured values published in US11173162B2, “Bicyclic heterocycles as FGFR4 inhibitors” (Incyte Corporation, priority 2015, dated 2021).

How the values were obtained:
[1] = test system: FGFR3 enzyme; experiment: FGFR Enzymatic Assay (FRET peptide phosphorylation), FGFR3; type: biochemical; conditions: IC50 ratio showing FGFR3 selectivity; Table 2A, pre-incubated for 4 hours
Procedure: (§1) The inhibitor potency of the exemplified compounds was measured in an enzyme assay that measures peptide phosphorylation using FRET measurements to detect product formation. Inhibitors were serially diluted in DMSO and a volume of 0.5 μL was transferred to the wells of a 384-well plate.
(§2) GraphPad prism3 was used to analyze the data.

[2] = biological target: FGFR4 (Homo sapiens (Human), UniProt P22455); experiment: FGFR Enzymatic Assay (FRET peptide phosphorylation), FGFR4; type: biochemical
Sequence of FGFR4 (P22455 22-802): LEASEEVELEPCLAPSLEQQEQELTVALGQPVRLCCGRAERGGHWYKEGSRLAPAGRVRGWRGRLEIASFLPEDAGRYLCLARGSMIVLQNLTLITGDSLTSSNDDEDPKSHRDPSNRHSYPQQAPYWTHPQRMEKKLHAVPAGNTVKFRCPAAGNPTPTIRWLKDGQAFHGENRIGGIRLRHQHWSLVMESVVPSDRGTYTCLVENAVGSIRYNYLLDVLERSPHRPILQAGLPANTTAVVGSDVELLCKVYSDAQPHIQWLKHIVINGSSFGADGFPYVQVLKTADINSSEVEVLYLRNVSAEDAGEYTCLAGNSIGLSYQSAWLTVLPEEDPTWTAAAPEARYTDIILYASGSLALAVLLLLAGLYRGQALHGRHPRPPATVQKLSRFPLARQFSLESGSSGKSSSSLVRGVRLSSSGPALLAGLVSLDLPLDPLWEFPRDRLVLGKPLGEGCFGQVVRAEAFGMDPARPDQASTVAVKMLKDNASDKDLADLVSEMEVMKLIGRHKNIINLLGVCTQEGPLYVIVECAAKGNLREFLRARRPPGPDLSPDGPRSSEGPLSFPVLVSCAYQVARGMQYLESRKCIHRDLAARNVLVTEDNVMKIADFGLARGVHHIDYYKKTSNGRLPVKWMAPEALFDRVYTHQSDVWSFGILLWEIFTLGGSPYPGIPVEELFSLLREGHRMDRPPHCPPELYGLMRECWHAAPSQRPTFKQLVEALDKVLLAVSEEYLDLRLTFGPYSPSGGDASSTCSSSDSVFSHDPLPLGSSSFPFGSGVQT
Procedure: as §1
The enzymes were purchased from Millipore or Invitrogen.
as §2

[3] = IC50 ratio showing FGFR4 selectivity, Table 2, pre-incubated for 4 hours
[4] = ratio of IC50 data showing FGFR4 selectivity, Table 4, pre-incubated for 5 to 10 minutes

For COc1cc(OC)c(F)c(N2Cc3cnc(-c4cncc(-n5ccnc5)c4)cc3C3(CC3)C2=O)c1F [Example 12, 6′-(5-(1H-imidazol-1-yl)pyridin-3-yl)-2′-(2,6-difluoro-3,5-dimethoxyphenyl)-1′H-spiro[cyclopropane-1,4′-[2,7]naphthyridin]-3′(2′H)-one], the FGFR1/FGFR3 [1] was >3, the FGFR1/FGFR4 [2, 3] was >50 and the FGFR2/FGFR4 [2, 3] was >25. For the same molecule, the FGFR3/FGFR4 [2, 3] was >10, the FGFR1/FGFR4 [2, 4] was >50 and the FGFR2/FGFR4 [2, 4] was >25. For the same molecule, the FGFR3/FGFR4 [2, 4] was >20.
For COc1cc(OC)c(F)c(N2Cc3cnc(-c4cncc(S(=O)(=O)N5CCOCC5)c4)cc3C3(CC3)C2=O)c1F [Example 14, 2′-(2,6-difluoro-3,5-dimethoxyphenyl)-6′-(5-(morpholinosulfonyl)pyridin-3-yl)-1′H-spiro[cyclopropane-1,4′-[2,7]naphthyridin]-3′(2′H)-one], the FGFR1/FGFR3 [1] was >5, the FGFR1/FGFR4 [2, 3] was >50 and the FGFR2/FGFR4 [2, 3] was >10. The FGFR3/FGFR4 [2, 3] was >1, the FGFR1/FGFR4 [2, 4] was >25 and the FGFR2/FGFR4 [2, 4] was >5. For the same molecule, the FGFR3/FGFR4 [2, 4] was >5.
In the case of COc1cc(OC)c(F)c(N2Cc3cnc(-c4cc(N)cnc4C)cc3C3(CC3)C2=O)c1F [Example 7, 6′-(5-amino-2-methylpyridin-3-yl)-2′-(2,6-difluoro-3,5-dimethoxyphenyl)-1′H-spiro[cyclopropane-1,4′-[2,7]naphthyridin]-3′(2′H)-one], the FGFR1/FGFR3 [1] is reported as >1, the FGFR1/FGFR4 [2, 3] is reported as >50 and the FGFR2/FGFR4 [2, 3] is reported as >25. The FGFR3/FGFR4 [2, 3] was >25, the FGFR1/FGFR4 [2, 4] was >25 and the FGFR2/FGFR4 [2, 4] was >10. The FGFR3/FGFR4 [2, 4] was >10.
For COc1cncc(-c2cc3c(cn2)CN(c2c(F)c(OC)cc(OC)c2F)C(=O)C32CC2)c1 [Example 10, 2′-(2,6-difluoro-3,5-dimethoxyphenyl)-6′-(5-methoxypyridin-3-yl)-1′H-spiro[cyclopropane-1,4′-[2,7]naphthyridin]-3′(2′H)-one], the FGFR1/FGFR3 [1] was >1, the FGFR1/FGFR4 [2, 3] was >25 and the FGFR2/FGFR4 [2, 3] was >25. The FGFR3/FGFR4 [2, 3] was >10, the FGFR1/FGFR4 [2, 4] was >25 and the FGFR2/FGFR4 [2, 4] was >10. The FGFR3/FGFR4 [2, 4] was >10.
In the case of COc1cc(OC)c(F)c(N2Cc3cnc(-c4cncc(N5CCOCC5)c4)cc3C3(CC3)C2=O)c1F [Example 6, 2′-(2,6-difluoro-3,5-dimethoxyphenyl)-6′-(5-morpholinopyridin-3-yl)-1′H-spiro[cyclopropane-1,4′-[2,7]naphthyridin]-3′(2′H)-one], the FGFR1/FGFR3 [1] is reported as >3, the FGFR1/FGFR4 [2, 3] is reported as >100 and the FGFR2/FGFR4 [2, 3] is reported as >100. The FGFR3/FGFR4 [2, 3] was >25, the FGFR1/FGFR4 [2, 4] was >100 and the FGFR2/FGFR4 [2, 4] was >100. For the same molecule, the FGFR3/FGFR4 [2, 4] was >50.
With COc1cc(OC)c(F)c(N2Cc3cnc(-c4cncc(F)c4)cc3C3(CC3)C2=O)c1F [Example 5, 2′-(2,6-difluoro-3,5-dimethoxyphenyl)-6′-(5-fluoropyridin-3-yl)-1′H-spiro[cyclopropane-1,4′-[2,7]naphthyridin]-3′(2′H)-one] the FGFR1/FGFR3 [1] was >3, the FGFR1/FGFR4 [2, 3] was >10 and the FGFR2/FGFR4 [2, 3] was >5. For the same molecule, the FGFR3/FGFR4 [2, 3] was >1, the FGFR1/FGFR4 [2, 4] was >10 and the FGFR2/FGFR4 [2, 4] was >5. For the same molecule, the FGFR3/FGFR4 [2, 4] was >4.
With COc1cc(OC)c(F)c(N2Cc3cnc(-c4cncc(C(=O)N5CCOCC5)c4)cc3C3(CC3)C2=O)c1F [Example 13, 2′-(2,6-difluoro-3,5-dimethoxyphenyl)-6′-(5-(morpholine-4-carbonyl)pyridin-3-yl)-1′H-spiro[cyclopropane-1,4′-[2,7]naphthyridin]-3′(2′H)-one] the FGFR1/FGFR3 [1] was >3, the FGFR1/FGFR4 [2, 3] was >50 and the FGFR2/FGFR4 [2, 3] was >25. The FGFR3/FGFR4 [2, 3] was >10, the FGFR1/FGFR4 [2, 4] was >50 and the FGFR2/FGFR4 [2, 4] was >20. The FGFR3/FGFR4 [2, 4] was >10.
In the case of COc1cc(OC)c(F)c(N2Cc3cnc(-c4cncc(Cl)c4)cc3C3(CC3)C2=O)c1F [Example 11, 6′-(5-chloropyridin-3-yl)-2′-(2,6-difluoro-3,5-dimethoxyphenyl)-1′H-spiro[cyclopropane-1,4′-[2,7]naphthyridin]-3′(2′H)-one], the FGFR1/FGFR3 [1] is reported as >1, the FGFR1/FGFR4 [2, 3] is reported as >25 and the FGFR2/FGFR4 [2, 3] is reported as >25. The FGFR3/FGFR4 [2, 3] was >10, the FGFR1/FGFR4 [2, 4] was >50 and the FGFR2/FGFR4 [2, 4] was >20. For the same molecule, the FGFR3/FGFR4 [2, 4] was >25.
COc1cc(OC)c(F)c(N2Cc3cnc(-c4cncc(C#N)c4)cc3C3(CC3)C2=O)c1F [Example 8, 5-(2′-(2,6-difluoro-3,5-dimethoxyphenyl)-3′-oxo-2′,3′-dihydro-1′H-spiro[cyclopropane-1,4′-[2,7]naphthyridine]-6′-yl)nicotinonitrile] was tested, and the FGFR1/FGFR3 [1] was >5, the FGFR1/FGFR4 [2, 3] was >50 and the FGFR2/FGFR4 [2, 3] was >10. For the same molecule, the FGFR3/FGFR4 [2, 3] was >10, the FGFR1/FGFR4 [2, 4] was >50 and the FGFR2/FGFR4 [2, 4] was >10. The FGFR3/FGFR4 [2, 4] was >10.
With COc1cc(OC)c(F)c(N2Cc3cnc(-c4cncc(CN5CCOCC5)c4)cc3C3(CC3)C2=O)c1F [Example 16, 2′-(2,6-difluoro-3,5-dimethoxyphenyl)-6′-(5-(morpholinomethyl)pyridin-3-yl)-1′H-spiro[cyclopropane-1,4′-[2,7]naphthyridin]-3′(2′H)-one] the FGFR1/FGFR3 [1] was >1, the FGFR1/FGFR4 [2, 3] was >50 and the FGFR2/FGFR4 [2, 3] was >25. For the same molecule, the FGFR3/FGFR4 [2, 3] was >10, the FGFR1/FGFR4 [2, 4] was >25 and the FGFR2/FGFR4 [2, 4] was >10. The FGFR3/FGFR4 [2, 4] was >10.
For COc1cc(OC)c(F)c(N2Cc3cnc(-c4cncc(NS(C)(=O)=O)c4)cc3C3(CC3)C2=O)c1F [Example 15, N-(5-(2′-(2,6-difluoro-3,5-dimethoxyphenyl)-3′-oxo-2′,3′-dihydro-1′H-spiro[cyclopropane-1,4′-[2,7]naphthyridine]-6′-yl)pyridin-3-yl)methanesulfonamide], the FGFR1/FGFR3 [1] was >3, the FGFR1/FGFR4 [2, 3] was >50 and the FGFR2/FGFR4 [2, 3] was >25. For the same molecule, the FGFR3/FGFR4 [2, 3] was >10, the FGFR1/FGFR4 [2, 4] was >50 and the FGFR2/FGFR4 [2, 4] was >25. For the same molecule, the FGFR3/FGFR4 [2, 4] was >10.
For COc1cc(OC)c(F)c(N2Cc3cnc(-c4nn(CC#N)cc4C#N)cc3C3(CC3)C2=O)c1F [Example 174, 1-(cyanomethyl)-3-(2′-(2,6-difluoro-3,5-dimethoxyphenyl)-3′-oxo-2′,3′-dihydro-1′H-spiro[cyclopropane-1,4′-[2,7]naphthyridine]-6′-yl)-1H-pyrazole-4-carbonitrile], the FGFR1/FGFR4 [2, 3] was >100, the FGFR2/FGFR4 [2, 3] was >10 and the FGFR3/FGFR4 [2, 3] was >25.
With COc1cc(OC)c(F)c(N2Cc3cnc(-c4cncc(N)c4)cc3C3(CC3)C2=O)c1F [Example 4, 6′-(5-aminopyridin-3-yl)-2′-(2,6-difluoro-3,5-dimethoxyphenyl)-1′H-spiro[cyclopropane-1,4′-[2,7]naphthyridin]-3′(2′H)-one] the FGFR1/FGFR3 [1] was >1, the FGFR1/FGFR4 [2, 3] was >25 and the FGFR2/FGFR4 [2, 3] was >10. For the same molecule, the FGFR3/FGFR4 [2, 3] was >10, the FGFR1/FGFR4 [2, 4] was >10 and the FGFR2/FGFR4 [2, 4] was >10. For the same molecule, the FGFR3/FGFR4 [2, 4] was >5.
For COc1cc(OC)c(F)c(N2Cc3cnc(-c4cccnc4)cc3C3(CC3)C2=O)c1F [Example 9, 2′-(2,6-difluoro-3,5-dimethoxyphenyl)-6′-(pyridin-3-yl)-1′H-spiro[cyclopropane-1,4′-[2,7]naphthyridin]-3′(2′H)-one], the FGFR1/FGFR3 [1] was >3, the FGFR1/FGFR4 [2, 3] was >10 and the FGFR2/FGFR4 [2, 3] was >1. For the same molecule, the FGFR3/FGFR4 [2, 3] was >1, the FGFR1/FGFR4 [2, 4] was >5 and the FGFR2/FGFR4 [2, 4] was >1. The FGFR3/FGFR4 [2, 4] was >1.
